Measured values: patent publication US20170119630A1, “BIPHASIC COMPOSITION FOR PERFUME AND PERSONAL CARE APPLICATIONS AND USES THEREOF” (Coty Inc., priority 2014, published 2017)

Assays:
[1] = Single fragrance migration study in biphasic compositions, GC/MS analysis; type: physicochemical; conditions: for Result in % based on GC/MS analysis, Regular EDT aromatics %: Regular EDT with Fragrance oil Giddy 11598/00; for migration between phases when the amount of water is increased: water ~7.4 wt % to ~27.25 wt %, FIG. 1, GC/MS
From the text: FIG. 1 has been obtained using GC/MS analytical tool. Depending primary on the log P of fragrances and/or secondary of the chemical families/functions of those fragrances, modification of the polarity will have the effect of pushing the fragrance in one preferred phase of the biphasic composition.
To determine the distribution of first fragrance and second fragrance in the biphasic composition three formulations (regular EDT, biphasic composition with low amount of water in the water-alcohol phase, biphasic composition with high amount of water in the water-alcohol phase) were tested and compared using GC/MS analysis and Expert evaluator.

[2] = colorant; cited from earlier work
[3] = Bi phase formula high amount of water in the bottom phase (total water ~27.24%)
[4] = Bi phase formula low amount of water in the bottom phase (total water ~7.4%)

SMILES	Result in % based on GC/MS analysis, Lower phase aromatics % [1, 3]	Result in % based on GC/MS analysis, Upper phase aromatics % [1, 3]	Result in % based on GC/MS analysis, Lower phase aromatics % [1, 4]	Result in % based on GC/MS analysis, Upper phase aromatics % [1, 4]	Result in % based on GC/MS analysis, Regular EDT aromatics % [1]	migration between phases when the amount of water is increased [1]	solubility (oil-soluble / water-soluble) [2]
C=CC(C)(O)CCC=C(C)CC (mixture of isomers) [ethyl linalol]	28.40%	0.83%	6.86%	1.11%	4.39%	stays in the hydro-alcoholic phase	–
CC(=O)OC1CCCCC1C(C)(C)C (single isomer, unassigned) [agrumex major isomer, agrumex]	0.16%	0.47%	0.40%	0.45%	0.41%	–	–
O=C1c2ccccc2C(=O)C1c1ccc2ccccc2n1 [D&C Yellow No. 11]	–	–	–	–	–	–	oil-soluble
O=C(O)c1nn(-c2ccc(S(=O)(=O)O)cc2)c(O)c1N=Nc1ccc(S(=O)(=O)O)cc1 [FD&C Yellow No. 5]	–	–	–	–	–	–	water-soluble
CCCCCCCCCCCCCC(=O)OC(C)C [Isopropyl Myristate IPM, Isopropyl Myristate]	0.00%	13.93%	4.96%	23.40%	13.34%	migrate following the same rules in the oil phase	–
CC(C)CC1CC(C)(O)CCO1 (stereo not shown) [florosa]	5.86%	3.93%	5.12%	1.86%	3.82%	–	–
CC1COCc2cc3c(cc21)C(C)(C)C(C)C3(C)C (stereo not drawn) [galaxolide (main peak), galaxolide]	1.64%	22.92%	15.47%	26.53%	20.25%	migrating in the oily phase	–
CCCCCC1C(=O)CCC1CC(=O)OC (stereo not drawn) [hedione trans, hedione]	26.10%	11.94%	18.40%	6.64%	13.28%	–	–
CC(C=O)Cc1ccc2c(c1)OCO2 (stereo not shown) [helional]	4.10%	0.91%	2.03%	0.40%	1.32%	–	–
CCCCCCC(C=O)=Cc1ccccc1 [hexylcinnamic aid, hexylcinnamic aldehyde]	0.46%	1.67%	1.65%	1.43%	1.54%	migrating in the oily phase	–
CC(CC=O)CCCC(C)(C)O (stereo not shown) [hydroxycitronelial]	4.13%	0.12%	0.88%	0.06%	0.53%	–	–
CC(C=O)Cc1ccc(C(C)(C)C)cc1 (stereo not shown) [lilial]	2.43%	4.18%	4.90%	2.70%	3.92%	–	–
C=CC(C)(CCC=C(C)C)OC(C)=O (stereo not shown) [linalyl acetate]	1.63%	3.89%	3.52%	3.38%	3.37%	–	–
